The values that follow come from patent US10213428B2, “(4-((3R,4R)-3-methoxytetrahydro-pyran-4-ylamino)piperidin-1-yl)(5-methyl-6-(((2R,6S)-6-(p-tolyl)tetrahydro-2H-pyran-2-yl)methylamino)pyrimidin-4-yl)methanone citrate” (Centrexion Therapeutics Corporation, priority 2015, dated 2019).

For data set [1], the target named is T1, hERG (Homo sapiens, UniProt Q12809).
T1 construct: expressed in transfected cells
The data set is described as follows: hERG-channel assay (whole-cell patch clamp, HEK293 cells transfected with hERG cDNA). As to conditions: human, HEK293 cells stably transfected with hERG cDNA, pH 7.4, read-out: inhibition of hERG-mediated potassium current. The class given is cell-based. The text has this: (§1) HEK (human embryonic kidney) 293 cells were stably transfected with hERG cDNA. Cells determined for use in patch clamp experiments were cultivated without antibiotic.
(§2) Cells were superfused with a bath solution containing (mM): NaCl (137), KCl (4.0), MgCl2 (1.0), CaCl2 (1.8), Glucose (10), HEPES (10), pH 7.4 with NaOH. Patch pipettes were made from borosilicate glass tubing (Hilgenberg, Malsfeld, Germany) using a horizontal puller (DMZ-Universal Puller, Zeitz-Instrumente, Martinsried, Germany) and filled with pipette solution containing (mM): K-aspartate (130), MgCl2 (5.0), EGTA (5.0), K2ATP (4.0), HEPES (10.0), pH 7.2 with KOH. Resistance of the microelectrodes was in the range between 2 and 5 MΩ.
(§3) Membrane currents were recorded using an EPC-10 patch clamp amplifier (HEKA Electronics, Lambrecht, Germany) and PatchMaster software (HEKA). The current signals were Bessel filtered at 2.5 kHz before being digitized at 5 kHz.
(§4) hERG-mediated membrane currents were recorded at typically 28° C., using the whole-cell configuration of the patch-clamp technique. […] During each inter-pulse interval 4 pulses scaled down by a factor of 0.2 were recorded for a P/n leak subtraction procedure. […] The remaining uncompensated Rs was recorded as well as actual temperature and holding current.
(§5) The concentrations of the test item were applied sequentially on each of the different cells investigated. A steady state level of baseline current was measured for at least 90 s prior to the application of the first test article concentration. […]
(§6) Peak current amplitudes were measured 3 ms after the ramp to +40 mV. […] Residual currents (I/I0) were calculated for each cell as the fraction of actual average peak current and average baseline peak current. Current inhibition was expressed as (1−I/I0)*100%. […]

For data set [2], the target named is T2, hERG-mediated potassium current (Homo sapiens, UniProt Q12809).
T2 construct: expressed in transfected cells
The description is as above. As to conditions: HEK293 cells, whole-cell patch clamp; read-out: IC50, inhibition of hERG-mediated potassium current. Type of data set: cell-based.
From the text: as §1, §2, §3, §4, §5, §6

A value given as a limit tells only on which side of the number the result lay.

T1 sequence (Q12809 whole entry): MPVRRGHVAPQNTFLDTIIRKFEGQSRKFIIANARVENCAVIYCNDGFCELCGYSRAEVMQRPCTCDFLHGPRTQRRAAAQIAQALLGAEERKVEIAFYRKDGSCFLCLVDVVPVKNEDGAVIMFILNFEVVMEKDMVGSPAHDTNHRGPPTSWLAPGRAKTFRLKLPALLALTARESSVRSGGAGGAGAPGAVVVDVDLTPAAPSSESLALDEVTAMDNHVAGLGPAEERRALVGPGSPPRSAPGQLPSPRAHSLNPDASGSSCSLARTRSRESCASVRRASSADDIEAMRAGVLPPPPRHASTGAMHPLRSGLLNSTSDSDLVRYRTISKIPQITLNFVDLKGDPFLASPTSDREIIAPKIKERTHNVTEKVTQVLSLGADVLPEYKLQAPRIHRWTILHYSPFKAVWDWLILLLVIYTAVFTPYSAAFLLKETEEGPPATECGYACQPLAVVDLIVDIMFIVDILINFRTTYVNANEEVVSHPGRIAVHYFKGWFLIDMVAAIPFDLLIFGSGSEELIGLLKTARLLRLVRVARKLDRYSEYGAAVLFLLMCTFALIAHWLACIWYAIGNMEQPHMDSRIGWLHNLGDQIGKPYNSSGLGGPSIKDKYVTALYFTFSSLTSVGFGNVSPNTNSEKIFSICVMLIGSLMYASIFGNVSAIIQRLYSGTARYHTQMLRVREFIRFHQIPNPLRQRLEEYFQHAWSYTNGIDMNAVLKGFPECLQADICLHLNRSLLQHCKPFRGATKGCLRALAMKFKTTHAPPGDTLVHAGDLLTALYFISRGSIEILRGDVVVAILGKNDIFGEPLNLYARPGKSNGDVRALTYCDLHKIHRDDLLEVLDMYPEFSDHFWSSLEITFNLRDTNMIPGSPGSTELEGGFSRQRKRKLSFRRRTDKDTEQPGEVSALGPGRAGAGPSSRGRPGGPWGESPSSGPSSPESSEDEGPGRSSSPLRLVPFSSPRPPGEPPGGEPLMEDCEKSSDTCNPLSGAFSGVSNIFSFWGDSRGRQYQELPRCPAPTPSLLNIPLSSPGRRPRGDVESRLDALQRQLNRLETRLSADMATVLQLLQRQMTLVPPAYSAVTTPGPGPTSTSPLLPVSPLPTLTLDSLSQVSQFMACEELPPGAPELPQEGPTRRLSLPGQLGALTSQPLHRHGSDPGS
T2 sequence (Q12809 whole entry): as above

With `CO[C@H]1COCC[C@H]1NC1CCN(C(=O)c2ncnc(NC[C@H]3CCC[C@@H](c4ccc(C)cc4)O3)c2C)CC1` [compound I, (4-((3R,4R)-3-methoxytetrahydro-pyran-4-ylamino)piperidin-1-yl)(5-methyl-6-(((2R,6S)-6-(p-tolyl)tetrahydro-2H-pyran-2-yl)methylamino)pyrimidin-4-yl)methanone], in data set [1] (at 10 μM), the inhibition at 10 µM was found to be 12%. Moreover, in data set [1] (at 30 μM), the inhibition at 30 µM amounted to 28%. The IC50 in data set [2] is over 30 µM.
